US20260176284A1, “Compounds with Anti-KRAS Mutated Tumor Activity” (Trasveda Ltd., priority 2022, published 2026)

Experiments:
[1] = system: KP-4 cells; test: 3D proliferation inhibition of KRAS G12D mutated tumor cells, KP-4; type: cell-based; details: Homo sapiens, KP-4, 3D methylcellulose culture, CTG, 120 hours
Text: (§1) This experiment evaluated and verified the proliferation inhibitory activity of the representative compounds of the present invention against the following five strains of KRAS-related tumor cells.
(§2) The following materials, reagents and instruments were used in this experiment: Five strains of cells were all from Nanjing Kebai Biotechnology Co., Ltd. (GP2D, CBP60010; HPAC, CBP60539; AsPC-1, CBP60546; KP-4, CBP60541; Panc 04.03, CBP60683); DMEM (Gibco, 11965092); RPMI-1640 (Gibco, SH30809.01); HPAC complete medium (Cobioer, CBP60539M); Fetal bovine serum FBS (Gibco, 10091-148); Insulin (Gibco, 41400045); Methylcellulose (methylcellulose, Sigma, 9004-67-5); Phosphate-buffered saline DPBS (Comning, 21-031-CVC); CellTiter-Glo® Luminescent Cell Viability Assay (Promega, Cat #G7573); 96-well clear flat-bottom black-wall plate (Corning, 3603); EnVision multilabel plate reader (PerkinElmer #2105); CO2 incubator (Thermo Scientific, Model 3 71 Series).
(§3) A sterilized 1% methylcellulose 3D culture medium was prepared in advance. The cells in the logarithmic growth phase were harvested, and a Countstar automatic cell counter based on the principle of the classic trypan blue staining method was used for cell counting and detecting cell viability to ensure that the cell viability was above 90%. The cell concentrations of GP2D, HPAC, AsPC-1, KP-f4, and Panc 04.03 were adjusted so that the final concentration of methylcellulose was 0.65%, and the mixture was allowed to stand after being well-mixed. After there were no visible air bubbles in the cell suspension, 80 μL of the cell suspension was added to each well of a 96-well plate, with a total of 1000-2000 cells. The cells in the 96-well plate were cultured overnight at 37° C., 5% CO2, and 95% humidity.
(§4) Drug Preparation for IC50 Determination: First, a 10 mM DMSO stock solution of each compound was prepared. For the first dilution, using DMSO as the solvent, each compound was first diluted to 5 mM and then serially diluted 3-fold to obtain 9 concentrations, preparing DMSO solutions of each compound at different concentrations. For the second dilution, a 5-fold diluted solution of each compound was prepared by a 1:100 dilution, using the complete medium as the solvent. […]
(§5) The cells in the 96-well plate with the added drugs were further cultured at 37° C. and 5% CO2 for 120 hours, and then a CTG analysis was performed. […] The cell plate was placed at room temperature for 20 minutes to stabilize the luminescence signal. The luminescence value was read, and the data were collected.
(§6) The data were analyzed using GraphPad Prism 9.0 software. Non-linear S-curve regression was used to fit the data to obtain the dose-response curve, and the IC50 value (nM) was calculated accordingly. […]

[2] = system: GP2D cells; test: 3D proliferation inhibition of KRAS G12D mutated tumor cells, GP2D; type: cell-based, human; details: Homo sapiens, GP2d, 3D methylcellulose culture, CTG, 120 hours
Text: as §1, §2, §3, §4, §5, §6

[3] = system: AsPC-1 cells; test: 3D proliferation inhibition of KRAS G12D mutated tumor cells, AsPC-1; type: cell-based; details: Homo sapiens, ASPC1, 3D methylcellulose culture, CTG, 120 hours
Text: as §1, §2
as §3, with “After there were no visible air bubbles in the cell suspension, 80 μL of the cell suspension was added to each well of a 96-well plate, with a total of 1000-2000 cells. The cells in the 96-well plate were cultured overnight at 37° C., 5% CO2, and 95% humidity.” left out
as §5, §6

[4] = system: Panc 04.03 cells; test: 3D proliferation inhibition of KRAS G12D mutated tumor cells, Panc 04.03; type: cell-based; details: Homo sapiens, Panc 04.03, 3D methylcellulose culture, CTG, 120 hours
Text: as §1, §2, §3, §4, §5, §6

[5] = system: HPAC cells; test: 3D proliferation inhibition of KRAS G12D mutated tumor cells, HPAC; type: cell-based, human; details: Homo sapiens, HPAC, 3D methylcellulose culture, CTG, 120 hours
Text: as §1, §2, §3, §4, §5, §6

[6] = system: KRAS-G12D mutated human colon carcinoma cells GP2d; test: Antitumor effect, subcutaneous xenograft of KRAS-G12D mutated human colon carcinoma cells GP2d; type: in vivo; details: BALB/c nude mice, 10 mg/kg, gavage, twice a day
Protocol: GP2d cells were purchased from Nanjing Kebai Biotechnology Co., Ltd. BALB/c nude mice, female, were purchased from Jiangsu GemPharmatech LLC. GP2d cells were cultured in culture medium containing DMEM and 10% FBS. The cells in the logarithmic growth phase were collected and resuspended in PBS to an appropriate concentration for subcutaneous tumor inoculation in mice. The experimental mice were subcutaneously inoculated on the right posterior side of the back. The inoculation dose of GP2d cells was 1×10^7 cells per mouse, and the cells were resuspended in a 1:1 mixture of PBS and Matrigel (the inoculation volume was 0.1 mL). When the average tumor volume grew to 150 mm^3, the mice were randomly grouped for administration according to the tumor size and body weight. Administration was started immediately after grouping, and the day of administration was regarded as day 0. The administration was carried out twice a day by gavage, at a dose of 10 mg/kg or a solvent control (0.5% Tween 80+99.5% of (0.5% MC (400 cp))). During the experiment, the body weight of the mice and the size of the tumors were measured twice a week.
The formula for calculating the tumor size: Tumor volume (mm^3)=0.5×(long diameter of tumor×(short diameter of tumor)^2).
Relative tumor inhibition rate TGI (%): TGI %=[1−(average tumor volume at the end of administration of the treatment group−average tumor volume at the beginning of administration of the treatment group)/(average tumor volume at the end of administration of the vehicle control group −average tumor volume at the beginning of administration of the vehicle control group)]×100%.

[7] = system: human pancreatic cancer cells HPAC (carrying KRas G12D mutant protein); test: In vivo pharmacodynamics, subcutaneous xenograft of human pancreatic cancer cells HPAC; details: NOD/SCID mice, 50 mpk, PO
Protocol: The following materials were used in this experiment: NOD/SCID mice, 6-8 weeks old, female, Jiangsu Ji Cai Yao Kang Biotechnology Co., Ltd.; HPAC cells (carrying KRas G12D mutant protein, ATCC); Captisol (Wuhan Fengyao Tonghui Chemical Products Co., Ltd., Cas #182410-00-0); Sodium acetate (aladdin); MC (sigma, 9004-67-5).
The experiment was carried out as follows: Female NOD/SCID mice aged 6-8 weeks were subcutaneously inoculated with 1-10^7 HPAC cells on the right posterior side of the back, with an inoculation volume of 0.1 mL. When the tumors grew to an average volume of 150 mm^3, the mice were randomly grouped for administration according to the tumor size and body weight. The day of administration was regarded as day 0. The administration was carried out once a day. The test compound was administered by tail vein injection or gavage, with 5 mice in each group at a dose of 10 mg/kg. The control group was administered with an equal volume of the solvent control by tail vein injection or gavage.
During the experiment, the tumor volume and body weight were measured twice a week. The formula for calculating the tumor volume was: Tumor volume (mm^3)=0.5×(tumor major axis×tumor minor axis^2). The average tumor inhibition rate TGI %=[(average tumor volume of the control group−average initial tumor volume of the control group)−(average tumor volume of the administration group−average initial tumor volume of the administration group)]/(average tumor volume of the control group−average initial tumor volume of the control group).

[8] = Mouse pharmacokinetics (IV and PO); type: in vivo; details: 10 mg/kg, male CD-1 mice, PO (gavage), 1 mg/mL at 10 mL/kg, plasma
Protocol: The pharmacokinetic properties of the compounds of the present invention were evaluated through a mouse pharmacokinetic experiment.
Male CD-1 mice, aged 6-8 weeks old, were purchased from Zhejiang Vital River Laboratory Animal Co., Ltd.
IV administration group: The compound was formulated into a sodium acetate buffer solution (10 mM sodium acetate solution, adjusted to pH 4.0 with acetic acid) containing 20% Captisol (sulfobutyl β-cyclodextrin) so that the final concentration of each compound was 0.6 mg/mL. The drug formulation was injected into the tail vein of CD-1 mice at an injection volume of 5 mL/kg. After administration, blood samples were collected from the submandibular vein or by other appropriate methods at 5 min, 15 min, 30 min, 1 h, 2 h, 4 h, 6 h, 8 h, and 24 h. The blood samples were centrifuged at a low temperature for 6 minutes, and the plasma was collected and stored at −80° C. for testing. The PO administration group formulated the compound into a solvent of 0.5% Tween 80+99.5% (0.5% MC (400 cp)) or 5% DMSO+95% (0.5% MC (400 cp)) so that the final concentration of each compound was 1 mg/mL. The drug formulation was administered to CD-1 mice by gavage at a volume of 10 mL/kg. After administration, blood samples were collected from the submandibular vein or by other appropriate methods at 15 min, 30 min, 1 h, 2 h, 4 h, 6 h, 8 h, and 24 h. The blood samples were centrifuged at a low temperature for 6 minutes, and the plasma was collected and stored at −80° C. for testing.
10 μL of the plasma sample was taken, and 200 μL of methanol containing an internal standard was added as a precipitating agent to precipitate plasma proteins and extract the compounds to be tested in the plasma. After centrifugation at a low temperature, 10 μL of the supernatant was injected, and the drug blood concentration was analyzed by LC-MS/MS. The pharmacokinetic parameters were calculated using Winnonlin based on the drug concentration data at different time points.

[9] = system: KRAS G12D mutated AGS human gastric adenocarcinoma cells; test: Proliferation inhibition of KRAS G12D mutant AGS cells, another experiment with similar protocol (includes MRTX1133); type: cell-based; details: Homo sapiens
Protocol: In another experiment, using a protocol similar to the one described above, the inhibitory activity of some representative compounds of the present invention against KRAS G12D mutated AGS human gastric adenocarcinoma cells was determined.
The synthesis of compound MRTX1133 was performed according to the method described in J. Med. Chem. 2022, 65, 4, 3123-3133.

Row | Structure (SMILES) | IC50 [1] [nM] | IC50 [2] [nM] | IC50 [3] [nM] | IC50 [4] [nM] | IC50 [5] [nM] | Tumor volume (mm3) (Day 21) [6] | TGI (%) ([6]; Day 21) | Tumor volume (mm3) (Day 20) ([7]; BID × 21) | TGI (%) ([7]; BID × 21, Day 20) | AUC(0-inf) [8] [ng·h/mL] | AUC(0-t) [8] [ng·h/mL] | half-life [8] [h] | IC50 [9] [nM]
1 | [2H]C([2H])([2H])N1CC[C@H](C(F)F)[C@](C)(C([2H])([2H])Oc2nc(N3CC4CCC(C3)N4)c3cc(C(F)(F)F)c(-c4cccc5sc(N)c(C#N)c45)c(F)c3n2)C1 (single isomer, unassigned) [Example 321-1] | 4.74 | 0.43 | 1.38 | 1.36 | 5.38 | 70 | 109 | – | – | – | – | – | –
2 | C#Cc1c(F)ccc2cc(O)cc(-c3ncc4c(N5C[C@H]6CC[C@@H](C5)N6)nc(OC[C@]5(C)CN(C)CC/C5=C\F)nc4c3F)c12 [Example 103, 4-(4-((1R,5S)-3,8-diazabicyclo[3.2.1]octan-3-yl)-8-fluoro-2-(((S,E)-4-(fluoromethylene)-1,3-dimethylpiperidin-3-yl)methoxy)pyrido[4,3-d]pyrimidin-7-yl)-5-ethynyl-6-fluoronaphthalen-2-ol] | 6.92 | 0.42 | 2.09 | 2.12 | 1.44 | – | – | 77 | 112 | 704 | 653 | 8.15 | 4
